According to the RepoRT retention time repository (doi:10.1021/ac101825k):

Test: RP, Waters Symmetry C18, 100 × 2.1 mm; A: water + 0.1% formic acid, pH 3; B: acetonitrile + 0.1% formic acid, pH 3; gradient (min/%B) 0/5 24/95 29/95 29.1/5
Details: stereoisomer not certain

Row | LC retention time | Compound
1 | 7.82 min | Oc1cc(O)c2c(c1)OC(c1ccc(O)c(O)c1)C(O)C2 (single isomer, unassigned; (-)) [(-)-Epicatechin]
2 | 12.3 min | COc1cc(C=CC(=O)O)cc(OC)c1OC [3,4,5-Trimethoxycinnamic_acid]
3 | 8.77 min | Cc1cc(=O)oc2cc(OC3OC(C(=O)O)C(O)C(O)C3O)ccc12 (stereo unspecified) [4-Methylumbelliferylglucuronide]
4 | 1.52 min | Nc1ncnc2c1ncn2C1OC(CO)C(O)C1O (stereo unspecified) [Adenosine]
5 | 14.2 min | O=c1cc(-c2ccc(O)c(-c3c(O)cc(O)c4c(=O)cc(-c5ccc(O)cc5)oc34)c2)oc2cc(O)cc(O)c12 [Amentoflavone]
6 | 7.2 min | CN1CCc2cccc3c2C1Cc1ccc(O)c(O)c1-3 (stereo unspecified) [Apomorphine]
7 | 9.9 min | COc1ccc2cc3[n+](cc2c1OC)CCc1cc2c(cc1-3)OCO2 [Berberine]
8 | 14.5 min | COc1c2ccoc2cc2oc(=O)ccc12 [Bergapten]
9 | 16.1 min | COc1ccc(-c2coc3cc(O)cc(O)c3c2=O)cc1 [Biochanin_A]
10 | 11.2 min | CCC1OC(=O)C(C)C(OC2CC(C)(OC)C(O)C(C)O2)C(C)C(OC2OC(C)CC(N(C)C)C2O)C(C)(O)CC(C)C(=O)C(C)C(O)C1(C)O (stereo unspecified) [Erythromycin]
11 | 13.1 min | O=c1c(-c2ccc(O)cc2)coc2cc(O)cc(O)c12 [Genistein]
12 | 12.1 min | CC(C)C(NC(=O)Cc1c[nH]c2ccccc12)C(=O)O (stereo unspecified) [IAA-Val]
13 | 10.5 min | O=C(O)c1c[nH]c2ccccc12 [Indole-3-carboxylic_acid]
14 | 13.3 min | O=c1c(O)c(-c2ccc(O)cc2)oc2cc(O)cc(O)c12 [Kaempferol]
15 | 6.57 min | c1coc(CNc2ncnc3nc[nH]c23)c1 [Kinetin]
16 | 10.5 min | CC1OC(OC2C(Oc3cc(O)c4c(c3)OC(c3ccc(O)cc3)CC4=O)OC(CO)C(O)C2O)C(O)C(O)C1O (stereo unspecified) [Naringin]

Row | LC retention time | Compound
17 | 1.2 min | NC(=O)c1ccc[n+](C2OC(COP(=O)(O)OP(=O)(O)OCC3OC(n4cnc5c(N)ncnc54)C(O)C3O)C(O)C2O)c1 (stereo unspecified) [Nicotinamide_dinucleotide]
18 | 2.27 min | NC(Cc1ccccc1)C(=O)O (stereo unspecified) [Phenylalanine]
19 | 11.1 min | O=C(CCc1ccc(O)cc1)c1c(O)cc(O)cc1OC1OC(CO)C(O)C(O)C1O (stereo unspecified) [Phlorizin]
20 | 12.2 min | O=c1c(O)c(-c2ccc(O)c(O)c2)oc2cc(O)cc(O)c12 [Quercetin]
21 | 12.6 min | COC(=O)C1C2CC3c4[nH]c5cc(OC)ccc5c4CCN3CC2CC(OC(=O)c2cc(OC)c(OC)c(OC)c2)C1OC (stereo unspecified) [Reserpine]
22 | 11.5 min | Oc1ccc(C=Cc2cc(O)cc(O)c2)cc1 [Resveratrol]
23 | 15.1 min | COC1C=COC2(C)Oc3c(C)c(O)c4c(O)c(c(C=NN5CCN(C)CC5)c(O)c4c3C2=O)NC(=O)C(C)=CC=CC(C)C(O)C(C)C(O)C(C)C(OC(C)=O)C1C (stereo unspecified) [Rifampicin]
24 | 9.72 min | CC1OC(OCC2OC(Oc3c(-c4ccc(O)c(O)c4)oc4cc(O)cc(O)c4c3=O)C(O)C(O)C2O)C(O)C(O)C1O (stereo unspecified) [Rutin]
25 | 10 min | COc1ccc2c(c1OC)C(=O)OC2C1c2c(cc3c(c2OC)OCO3)CCN1C (stereo unspecified) [S,R-Noscapine]
26 | 10.9 min | Cc1cc2nc3cc(C)c(N)cc3[n+](-c3ccccc3)c2cc1N [Safranin]
27 | 6.46 min | COc1cc(C=CC(=O)OCC[N+](C)(C)C)cc(OC)c1O [Sinapine]
28 | 4.07 min | NC(Cc1c[nH]c2ccccc12)C(=O)O (stereo unspecified) [Tryptophan]
29 | 9.58 min | CC1OC(OC2C(c3c(O)cc(O)c4c(=O)cc(-c5ccc(O)cc5)oc34)OC(CO)C(O)C2O)C(O)C(O)C1O (stereo unspecified) [Vitexin-2''-O-rhamnoside]
30 | 18.5 min | COc1cc(O)c(CC=C(C)C)c(O)c1C(=O)C=Cc1ccc(O)cc1 [Xanthohumol]
31 | 10.1 min | COc1ccccc1C(=O)O [o-Anisic acid]

Row | Compound | LC retention time
32 | CN1CCc2cc3c(cc2C1C1OC(=O)c2c1ccc1c2OCO1)OCO3 (stereo unspecified) [Bicuculline] | 8.51 min
33 | CN1Cc2c(ccc3c2OCO3)C2C(O)Cc3cc4c(cc3C21)OCO4 (stereo unspecified) [Chelidonine] | 9.5 min
34 | C=CC1CN2CCC1CC2C(O)c1ccnc2ccccc12 (stereo unspecified) [Cinchonine] | 3.47 min
35 | CCC1CN2CCc3cc(OC)c(OC)cc3C2CC1CC1NCCc2cc(OC)c(OC)cc21 (stereo unspecified) [Emetine] | 7.62 min
36 | Cc1nccc2c1[nH]c1ccccc12 [Harmane] | 7.81 min
37 | COc1ccc(CC2c3cc(OC)c(OC)cc3CCN2C)cc1OC (stereo unspecified) [Laudanosine] | 8.39 min
38 | C=C(C)C1Cc2c(ccc3c2OC2COc4cc(OC)c(OC)cc4C2C3=O)O1 (stereo unspecified) [Rotenone] | 18 min
39 | CC1NCCc2cc(O)c(O)cc21 (stereo unspecified) [Salsolinol] | 1.08 min
40 | Oc1ccc(CC2NCCc3cc(O)c(O)cc32)cc1O (stereo unspecified) [Tetrahydropapaveroline] | 1.14 min
41 | NCCc1ccc(O)cc1 [Tyramine] | 8.45 min
